Source: patent publication EP1840134B1 (NOVO NORDISK A/S, priority 1998, dated 2016)

Tested on: monoclonal antibody specific for the N-terminal region of GLP-1 (7-37)
Experiment: Cross reactivity of the RIA antibody used to determine plasma concentrations
Type: binding
Conditions: RIA at 4°C
Protocol: The entire procedure was carried out at 4°C.
The assay was carried out as follows: 100 µl plasma was mixed with 271 µl 96% ethanol, mixed using a vortex mixer and centrifuged at 2600*g for 30 min. The supernatant was decanted into Minisorp tubes and evaporated completely (Savant Speedvac AS290). The evaporation residue was reconstituted in the assay buffer consisting of 80 mM NaH2PO4/Na2HPO4, 0.1 % HSA (Orpha 20/21, Behring), 10 mM EDTA, 0.6 mM thiomersal (Sigma), pH 7.5. Samples were reconstituted in volumes suitable for their expected concentrations, and were allowed to reconstitute for 30 min. To 300 µl sample, 100 µl antibody solution in dilution buffer containing 40 mM NaH2PO4/Na2HPO4, 0.1 % HSA, 0.6 mM thiomersal, pH 7.5, was added. A non-specific sample was prepared by mixing 300 µl buffer with 100 µl dilution buffer. Individual standards were prepared from freeze dried stocks, dissolved in 300 µl assay buffer. All samples were pre-incubated in Minisorp tubes with antibody as described above for 72 h. […] Immediately after the centrifugation, the supernatant was decanted and counted in a γ-counter. The concentration in the samples was calculated from individual standard curves. Plasma concentrations were found, calculated as % of the maximum concentration for the individual compounds (n=2).

## GLP-1 (1-37) (HDEFERHAEGTFTSDVSSYLEGQAAKEFIAWLVKGRG; Glucagon-like peptide 1; UniProt P01275 92-128, looked up, fragment)
  cross reactivities: less than 1%
